{"source": "patent US20050272717A1", "about": "“Treatment of aromatase inhibitor therapy-related osteoporosis” (priority 2004, published 2005)", "origin": "cited, not measured here", "key": {"bone": {"tested_on": "bone", "conditions": "preclinical studies"}}, "data": [{"smiles": "Cc1c(-c2ccc(O)cc2)n(Cc2ccc(OCCN3CCCCCC3)cc2)c2ccc(O)cc12", "note": "[bazedoxifene, 1-[4-(2-azepan-1-yl-ethoxy)-benzyl]-2-(4-hydroxy-phenyl)-3-methyl-1H-indol-5-ol]", "values": [{"measurement": "compressive bone strength", "setting": "bone", "value": "improved"}, {"measurement": "histomorphometric profile", "setting": "bone; compared with raloxifene", "value": "superior to that of raloxifene"}, {"measurement": "estradiol-stimulated proliferation of breast cancer cells", "setting": "breast cancer cells", "value": "inhibits"}]}]}
